Type in all cases: biochemical
The test system of test [1] is amylase. Nature of the test: Amylase activity of B. subtilis Alkaline Protease composition after oxidizing agent treatment (Food Chemicals Codex method). Conditions: for Amylase % loss: 75 min.
Test [2] deals with protease (Bacillus subtilis, UniProt P04189). Nature of the test: Protease activity of B. subtilis Alkaline Protease composition after oxidizing agent treatment (Food Chemicals Codex method).
Test [3] has as its system protease. The test is described as follows: Protease activity of pancreatin after hypochlorite treatment. Particulars: for Protease Activity: pH 6.5, 0% control 27,300; for Protease % loss: pH 6.5, 75 min. Set-up: Protease Activity: unit not given beside the values. The method, then:
(§1) Pancreatin obtained from the Cudahy Co. was dissolved in isotonic salt solution (0.9% NaCl) to a concentration of 3.13 g. in 25 g. of solution. The solution pH was 6.5. Sodium hypochlorite solution (Clorox®) was added and the increments equalized by the addition of isotonic salt solution. The isotonic salt solution is used to avoid potency degradation of the solution upon standing. A similar lack of effect was noted when using an enzyme solution having a pH of 5.8 rather than 6.5. The enzyme mixture was treated for 11/4 hr. at room temperature and then assayed for protease and amylase activity. As in the prior Examples, the percent sodium hypochlorite is based on the solids content of the enzyme solution.
(§2) ^1, ^2 Amylase and protease activity were assayed by the same

For test [4], the target named is T1, amylase (Sus scrofa, UniProt P00690).
T1 construct: purchased Cudahy Co; host or cells: pancreas (pancreatin)
T1 sequence (P00690 16-511): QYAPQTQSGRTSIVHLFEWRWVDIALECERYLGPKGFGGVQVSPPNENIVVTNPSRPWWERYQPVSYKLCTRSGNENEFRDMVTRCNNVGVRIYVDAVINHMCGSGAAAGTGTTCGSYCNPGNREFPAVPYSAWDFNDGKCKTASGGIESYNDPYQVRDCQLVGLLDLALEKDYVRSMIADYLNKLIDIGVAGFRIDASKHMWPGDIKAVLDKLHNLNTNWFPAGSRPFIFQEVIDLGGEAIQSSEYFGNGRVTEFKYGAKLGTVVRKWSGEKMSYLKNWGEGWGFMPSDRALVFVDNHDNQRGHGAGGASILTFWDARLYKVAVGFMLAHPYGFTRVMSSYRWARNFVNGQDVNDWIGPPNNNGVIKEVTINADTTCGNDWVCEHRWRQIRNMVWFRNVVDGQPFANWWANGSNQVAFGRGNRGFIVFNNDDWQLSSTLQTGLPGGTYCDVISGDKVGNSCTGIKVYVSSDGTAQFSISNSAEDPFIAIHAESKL
The test is described as follows: Amylase activity of pancreatin after hypochlorite treatment. As to the method:
as §1, §2

In test [5] the test system is amylase. The test is described as follows: Amylase inactivation in dry enzyme mixture from Bacillus subtilis culture filtrate, spray dried product. Particulars: 0.35% NaOCl based on weight of dry mixture, pH 6.2-6.6. The method, then: (§3) Twenty five pounds of an unstandarized, dry enzyme mixture, obtained by drying the clarified culture filtrate from the aerobic fermentation of Bacillus subtilis in an aqueous nutrient culture medium containing assimilable C, N and mineral salts, and which was determined to contain neutral protease, alkaline protease and amylase, is admixed with one hundred pounds of water at 70°-85° F. and agitated to facilitate solution. The solution is adjusted to pH 6.2-6.6 by slow addition of 20% aqueous NaOH solution. Then, 1.67 pounds of Clorox® (containing 5.25% NaOCl) is slowly admixed with the foregoing enzyme solution to thereby result in the addition of 0.0877 pounds or 0.35% NaOCl based on the weight of the dry mixture.

In test [6] the test system is protease (both neutral and alkaline). The test is described as follows: Protease retention in dry enzyme mixture from Bacillus subtilis culture filtrate, spray dried product. Conditions: 0.35% NaOCl based on weight of dry mixture; pH 6.2-6.6; final spray dried material vs starting material. The method, then: as §3
Setting [7] is: Table II, treated solution, 0.3% based on weight of enzyme composition, final pH 6.5.
[8] abbreviates: Table III, spray-dried product, 0.3% based on weight of enzyme composition.

Values joined by “and” are separate entries in the source; they are usually repeats but may differ in a detail not shown here. Identical values can stand only once. Like-named read-outs stand apart in the source and are kept apart here.

Chain of protease (Bacillus subtilis, UniProt P04189) (P04189 107-381): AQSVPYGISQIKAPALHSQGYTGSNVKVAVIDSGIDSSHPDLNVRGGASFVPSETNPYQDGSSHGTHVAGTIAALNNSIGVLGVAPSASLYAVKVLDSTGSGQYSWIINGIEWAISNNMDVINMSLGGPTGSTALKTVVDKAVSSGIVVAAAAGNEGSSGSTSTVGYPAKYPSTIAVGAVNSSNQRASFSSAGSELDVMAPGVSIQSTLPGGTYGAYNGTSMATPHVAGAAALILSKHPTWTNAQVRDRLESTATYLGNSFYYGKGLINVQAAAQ

For the compound `OO` [hydrogen peroxide, reference compound], the “Amylase Activity” value in the test with amylase [1] was 1250; in the test on amylase [1] (pH 6.4), 236. Further, the “selective inactivation of amylase compared with hypochlorite (in words)” value in the test with amylase [1] is reported as “substantially less effective in selectively inactivating amylase”. Moreover, the “Protease Activity” value is listed as 157,512 on protease [2] and 29,579 on protease [2] (pH 6.4).

`[Na+].[O-][Cl+2]([O-])[O-]` [sodium chlorate, reference compound]: the “effect on amylase activity” value in the test on amylase [1] is recorded as “Neither of these salts had any effect”. For the same compound, the “effect on protease activity” value at protease [2] is reported as “Neither of these salts had any effect”.

As for `OCl` [sodium hypochlorite], the “Protease Activity” value in the test on protease [3] (1.8% on solids content) is 28,400; in the test on protease [3] (3.6% on solids content), 24,800; in the test on protease [3] (7.2% on solids content), 19,100; in the test with protease [3] (10.8% on solids content), 11,200; on protease [2] (0.125% ion salt, pH 6.3, 0% control 25,900), 25,100; on protease [2] (0.25% ion salt, pH 6.3, 0% control 25,900), 25,900. The Protease Activity was 24,600 on protease [2] (0.40% ion salt, pH 6.3, 0% control 25,900); 27,365 at protease [2] (setting [7]); 147,650 on protease [2] (setting [8]). The Protease % loss is given as 0% in the test with protease [3] (1.8% on solids content), 9% in the test on protease [3] (3.6% on solids content), 30% in the test with protease [3] (7.2% on solids content) and 59% in the test on protease [3] (10.8% on solids content). Further, the “Amylase Activity” value at amylase [4] (1.8% on solids content, pH 6.5, room temperature, 0% control 1075) is given as 467; on amylase [4] (3.6% on solids content, pH 6.5, 0% control 1075), 31; on amylase [4] (7.2% on solids content, pH 6.5, 0% control 1075), 3; at amylase [4] (10.8% on solids content, pH 6.5, 0% control 1075) it was 0; in the test on amylase [1] (0.125% ion salt, pH 6.3, 0% control 583) it was 242; with amylase [1] (0.25% ion salt, pH 6.3, 0% control 583) it was 16. Moreover, the Amylase Activity in the test on amylase [1] (0.40% ion salt, pH 6.3, 0% control 583) is listed as 11; with amylase [1] (setting [7]) it was 3; with amylase [1] (setting [8]) it was 15. Moreover, the inhibition at 1.8 % on amylase [4] (1.25 h, 1.8% on solids content, pH 6.5, read-out: Amylase % loss) came out at 57%. For the same compound, the inhibition at 3.6 % on amylase [4] (1.25 h, 3.6% on solids content, pH 6.5, read-out: Amylase % loss) was determined as 97%. Also, the inhibition at 7.2 % at amylase [4] (1.25 h, 7.2% on solids content, pH 6.5, read-out: Amylase % loss) worked out at 100%. The inhibition at 10.8 % at amylase [4] (1.25 h, 10.8% on solids content, pH 6.5, read-out: Amylase % loss) amounted to 100%. Also, the “amylase destruction (in words)” value in the test on amylase [5] is listed as “immediately destroys the amylase”. Also, in the test on amylase [5] (final spray dried material vs starting material), the amylase inactivated result is recorded as “about 98%”. Besides, the Amylase % loss came to 55% with amylase [1] (0.125% ion salt, pH 6.3); 97% in the test with amylase [1] (0.25% ion salt, pH 6.3); 98% in the test on amylase [1] (0.40% ion salt, pH 6.3). Also, in test [6], the “protease retained in the final product” value was “greater than 90%”. For the same compound, the inhibition at 0.125 % at protease [2] (1.25 h, 0.125% ion salt, pH 6.3, read-out: Protease % loss) turned out to be 3%. On protease [2] (1.25 h, 0.25% ion salt, pH 6.3, read-out: Protease % loss), the inhibition at 0.25 % is 0%. The inhibition at 0.4 % at protease [2] (1.25 h, 0.40% ion salt, pH 6.3, read-out: Protease % loss) is 5%.

`[O-][Cl+3]([O-])([O-])O` [sodium perchlorate, reference compound]: in the test with amylase [1], the “effect on amylase activity” value is given as “Neither of these salts had any effect”. Further, at protease [2], the “effect on protease activity” value is “Neither of these salts had any effect”.

For sodium chlorite, the Amylase % loss in the test on amylase [1] (b. subtilis amylase, pH 6.3, 75 min) is on record as 99%. In addition, at protease [2] (b. subtilis alkaline protease, pH 6.3, 75 min, 75 min), the Protease % loss is 0% and 1% and 8%. The Protease Activity on protease [2] (pH 6.3) was 40,800 and 39,900 and 37,200.

Source of the values: patent US4086139A, “Differential inactivation of amylase in amylase-protease mixtures” (GB Fermentation Industries Inc., priority 1976, dated 1978).
